From ChEMBL document CHEMBL1201862, “PubChem BioAssay data set” (2004)
Where “and” joins values, the source holds several entries; their conditions need not be identical. Identical values can stand only once.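 Tested at 5 concentrations; 48 h exposure; 96-well plates; endpoints linearly interpolated, else capped at highest concentration. Abbreviation: GI50, concentration required for 50% inhibition of growth.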 Calls of active or inactive are those of the source. No stated cut-off is given here; in the data, active = GI50 up to about 1.1 µM and inactive = higher.

Legend:
Assay in all cases: NCI anticancer screen, dose series, 48 h
[1] = test system: HT-29
[2] = test system: A498
[3] = test system: HCT-116
[4] = test system: KM12
[5] = test system: SW-620
[6] = test system: K562
[7] = test system: UACC-62
[8] = test system: SK-MEL-2
[9] = test system: SK-MEL-5
[10] = test system: OVCAR-5
[11] = test system: LOX IMVI
[12] = test system: OVCAR-8
[13] = test system: HL-60
[14] = test system: COLO 205
[15] = test system: DMS-114
[16] = test system: Malme-3M
[17] = test system: M19-MEL
[18] = test system: NCI-H460
[19] = test system: SNB-78
[20] = test system: LXFL 529
[21] = test system: NCI-H226
[22] = test system: SK-MEL-28
[23] = test system: DMS-273
[24] = test system: A549
[25] = test system: HCT-15
[26] = test system: HCC 2998
[27] = test system: SNB-75
[28] = test system: CCRF-CEM
[29] = test system: DLD-1
[30] = test system: EKVX
[31] = test system: SN12C
[32] = test system: ACHN
[33] = test system: NCI-H522
[34] = test system: NCI-H23
[35] = test system: MDA-N
[36] = test system: OVCAR-3
[37] = test system: RPMI-8226
[38] = test system: DU-145
[39] = test system: OVCAR-4
[40] = test system: MDA-MB-435
[41] = test system: BT-549
[42] = test system: UO-31
[43] = test system: MOLT-4
[44] = test system: HOP-62
[45] = test system: 786-0
[46] = test system: M14
[47] = test system: RXF 393
[48] = test system: MDA-MB-231
[49] = test system: T47D
[50] = test system: SF-539
[51] = test system: HOP-92
[52] = test system: SF-268
[53] = test system: CAKI-1
[54] = test system: IGROV-1
[55] = test system: PC-3
[56] = test system: MCF7
[57] = test system: NCI/ADR-RES
[58] = test system: Hs-578T
[59] = test system: SNB-19
[60] = test system: UACC-257
[61] = test system: SK-OV-3
[62] = test system: SR
[63] = test system: SF-295
[64] = test system: TK-10
[65] = test system: U-251

CC(=O)OCC1OC(n2c(=S)n(-c3ccccc3)c(=O)c3cc(Br)cc(Br)c32)C(OC(C)=O)C(OC(C)=O)C1OC(C)=O (stereo not given)
GI50 [1]: > 100 µM (inactive) | GI50 [2]: > 100 µM (inactive) and 61.7 µM (inactive) | GI50 [3]: 65.2 µM (inactive) | GI50 [4]: 83 µM (inactive) and 78.5 µM (inactive) | GI50 [5]: > 100 µM (inactive) | GI50 [6]: 65.3 µM (inactive) | GI50 [7]: 59.2 µM (inactive) and 54.3 µM (inactive) | GI50 [8]: > 100 µM (inactive) | GI50 [9]: 91.6 µM (inactive) | GI50 [10]: > 100 µM (inactive) | GI50 [11]: 60 µM (inactive) | GI50 [12]: > 100 µM (inactive) and 92.9 µM (inactive) | GI50 [13]: 86.7 µM (inactive) | GI50 [14]: > 100 µM (inactive) | GI50 [15]: 35.2 µM (inactive) and 57.8 µM (inactive) | GI50 [16]: > 100 µM (inactive) | GI50 [17]: 65.6 µM (inactive) | GI50 [18]: > 100 µM (inactive) and 81.8 µM (inactive) | GI50 [19]: 99.3 µM (inactive) and 54.8 µM (inactive) | GI50 [20]: 72.1 µM (inactive) and 45.2 µM (inactive) | GI50 [21]: 61.7 µM (inactive) | GI50 [22]: > 100 µM (inactive) | GI50 [23]: > 100 µM (inactive) and 64.9 µM (inactive) | GI50 [24]: 90.8 µM (inactive) and 58.6 µM (inactive) | GI50 [25]: 83.4 µM | GI50 [26]: > 100 µM (inactive) | GI50 [27]: 33.5 µM (inactive) and 22.6 µM (inactive) | GI50 [28]: > 100 µM (inactive) | GI50 [29]: > 100 µM (inactive) | GI50 [30]: > 100 µM (inactive) | GI50 [31]: > 100 µM (inactive) and 81.8 µM (inactive) | GI50 [32]: 51.8 µM (inactive) and 87.3 µM (inactive)

COC(=O)CN1Cc2cc(C)cc(c2O)CN(CC(=O)OC)Cc2cc(C)cc(c2O)CN(CC(=O)OC)Cc2cc(C)cc(c2O)CN(CC(=O)OC)Cc2cc(C)cc(c2O)C1
GI50 [33]: > 100 µM (inactive) | GI50 [1]: 8.79 µM (inactive) | GI50 [2]: 18.1 µM (inactive) | GI50 [3]: 11.1 µM (inactive) | GI50 [34]: 30.5 µM (inactive) | GI50 [35]: > 50 µM (inactive) | GI50 [4]: 32.6 µM (inactive) | GI50 [5]: 14.3 µM (inactive) | GI50 [6]: 21.8 µM (inactive) | GI50 [36]: 7.05 µM (inactive) | GI50 [37]: 39 µM (inactive) | GI50 [38]: 8.17 µM (inactive) | GI50 [39]: 12.2 µM (inactive) | GI50 [7]: 39.6 µM (inactive) | GI50 [8]: 13.6 µM (inactive) | GI50 [9]: 19.9 µM (inactive) | GI50 [10]: 9.46 µM (inactive) | GI50 [40]: 26.9 µM (inactive) | GI50 [11]: 7.33 µM (inactive) | GI50 [41]: 24.8 µM (inactive) | GI50 [12]: 11 µM (inactive) | GI50 [42]: 8.89 µM (inactive) | GI50 [43]: 9.62 µM (inactive) | GI50 [13]: 3.03 µM (inactive) | GI50 [14]: 13.7 µM (inactive) | GI50 [44]: 9.51 µM (inactive) | GI50 [45]: 10.2 µM (inactive) | GI50 [16]: 12.2 µM (inactive) | GI50 [46]: 4.92 µM (inactive) | GI50 [18]: 6.85 µM (inactive) | GI50 [47]: 4.19 µM (inactive) | GI50 [48]: 26.7 µM (inactive) | GI50 [49]: 13.2 µM (inactive) | GI50 [50]: 12.8 µM (inactive) | GI50 [21]: 8.04 µM (inactive) | GI50 [51]: > 50 µM (inactive) | GI50 [52]: 9.89 µM (inactive) | GI50 [22]: 21.9 µM (inactive) | GI50 [53]: 24.2 µM (inactive) | GI50 [54]: 19.7 µM (inactive) | GI50 [55]: 18.5 µM (inactive) | GI50 [56]: 14.1 µM (inactive) | GI50 [24]: 18.4 µM (inactive) | GI50 [25]: 14.6 µM | GI50 [57]: 19.5 µM (inactive) | GI50 [26]: 13.6 µM (inactive) | GI50 [27]: 12.4 µM (inactive) | GI50 [58]: 38.4 µM (inactive) | GI50 [28]: 2.03 µM (inactive) | GI50 [59]: 16 µM (inactive) | GI50 [60]: 16.8 µM (inactive) | GI50 [61]: 11.9 µM (inactive) | GI50 [62]: 6.04 µM (inactive) | GI50 [30]: 9.06 µM (inactive) | GI50 [63]: 17.5 µM (inactive) | GI50 [31]: 21.5 µM (inactive) | GI50 [64]: 15.4 µM (inactive) | GI50 [32]: 11.5 µM (inactive) | GI50 [65]: 14 µM (inactive)

O=CNc1ccccc1OCCOc1ccccc1NC=O
GI50 [33]: > 100 µM (inactive) | GI50 [1]: > 100 µM (inactive) | GI50 [2]: > 100 µM (inactive) | GI50 [3]: > 100 µM (inactive) | GI50 [34]: > 100 µM (inactive) | GI50 [35]: > 100 µM (inactive) | GI50 [4]: > 100 µM (inactive) | GI50 [5]: > 100 µM (inactive) | GI50 [6]: > 100 µM (inactive) | GI50 [36]: > 100 µM (inactive) | GI50 [37]: > 100 µM (inactive) | GI50 [38]: > 100 µM (inactive) | GI50 [39]: > 100 µM (inactive) | GI50 [7]: > 100 µM (inactive) | GI50 [8]: > 100 µM (inactive) | GI50 [9]: > 100 µM (inactive) | GI50 [10]: > 100 µM (inactive) | GI50 [40]: > 100 µM (inactive) | GI50 [11]: > 100 µM (inactive) | GI50 [41]: > 100 µM (inactive) | GI50 [12]: > 100 µM (inactive) | GI50 [42]: > 100 µM (inactive) | GI50 [43]: > 100 µM (inactive) | GI50 [13]: > 100 µM (inactive) | GI50 [14]: > 100 µM (inactive) | GI50 [44]: > 100 µM (inactive) | GI50 [45]: > 100 µM (inactive) | GI50 [16]: > 100 µM (inactive) | GI50 [46]: > 100 µM (inactive) | GI50 [18]: > 100 µM (inactive) | GI50 [47]: > 100 µM (inactive) | GI50 [48]: > 100 µM (inactive) | GI50 [49]: > 100 µM (inactive) | GI50 [50]: > 100 µM (inactive) | GI50 [21]: > 100 µM (inactive) | GI50 [51]: > 100 µM (inactive) | GI50 [52]: > 100 µM (inactive) | GI50 [22]: > 100 µM (inactive) | GI50 [53]: > 100 µM (inactive) | GI50 [54]: > 100 µM (inactive) | GI50 [55]: > 100 µM (inactive) | GI50 [56]: > 100 µM (inactive) | GI50 [24]: > 100 µM (inactive) | GI50 [25]: > 100 µM | GI50 [57]: > 100 µM (inactive) | GI50 [26]: > 100 µM (inactive) | GI50 [27]: > 100 µM (inactive) | GI50 [58]: > 100 µM (inactive) | GI50 [28]: > 100 µM (inactive) | GI50 [59]: > 100 µM (inactive) | GI50 [60]: > 100 µM (inactive) | GI50 [61]: > 100 µM (inactive) | GI50 [62]: > 100 µM (inactive) | GI50 [30]: > 100 µM (inactive) | GI50 [63]: > 100 µM (inactive) | GI50 [31]: > 100 µM (inactive) | GI50 [64]: > 100 µM (inactive) | GI50 [32]: > 100 µM (inactive) | GI50 [65]: > 100 µM (inactive)
